Test results: patent US12286442B2, “Methods and materials for increasing transcription factor eb polypeptide levels” (University of Pittsburgh—Of the Commonwealth System of …, priority 2019, dated 2025)
Entries after “also recorded” stand apart in the source; their conditions may differ.

System: TFEB
Assay: High content screen measuring TFEB nuclear accumulation (TFEB nuclear/cytosol ratio) in BEAS-2B cells stably expressing TFEB-EGFP
Format: cell-based, human
Conditions: 18 hours incubation
Outline: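 BEAS-2B cells stably expressing TFEB-EGFP (~2300–2500 per well) pre-incubated 8 hours, then exposed to serially diluted compounds (DMEM low glucose, 2% FBS) for 18 hours, PFA-fixed and DAPI-stained. Imaged nuclear (DAPI mask) vs cytosolic (expanded mask) TFEB-GFP; activity = minimal concentration raising nuclear/cytosol ratio by 25%.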

Structure (SMILES) | efficacy (minimal compound concentration needed to increase TFEB nuclear/cytosol ratio by 25%)
Fc1cccc(Nc2nc(-c3ccncc3)nc3ccccc23)c1 [Compound 178] | +++ (“+++” equals ≤1 μM)
COc1cccc2c(Nc3ccc4[nH]ccc4c3)nc(-c3ccncc3)nc12 [Compound 115] | + (“+” equals >25 μM)
c1ccc2c(Nc3ccc4[nH]ncc4c3)nc(-c3ccncc3)nc2c1 [Compound 160] | +++ (“+++” equals ≤1 μM)
c1cnc2nc(-c3ccncc3)nc(Nc3ccc4c(c3)OCO4)c2c1 [Compound 133] | +++ (“+++” equals ≤1 μM)
c1ccc2c(Nc3ccc4ccncc4c3)nc(-c3ccncc3)nc2c1 [Compound 13] | + (“+” equals >25 μM)
c1ccc2c(Nc3ccc4[nH]ccc4c3)nc(-c3ccncc3)nc2c1 [Compound 15] | +++ (“+++” equals ≤1 μM)
Fc1cc(Nc2nc(N3CCOCC3)nc3ncccc23)cc2cc[nH]c12 [Compound 384] | +++ (“+++” equals ≤1 μM)
Cc1ccc2nc(-c3ccncc3)nc(Nc3ccc4[nH]ccc4c3)c2c1 [Compound 116] | +++ (“+++” equals ≤1 μM)
c1cnc2nc(-c3ccncc3)nc(Nc3ccc4cnsc4c3)c2c1 [Compound 136] | +++ (“+++” equals ≤1 μM)
COc1ccc(NC(=O)Cn2c(=O)n(-c3ccc(CC(=O)NCCc4ccccc4)cc3)c(=O)c3ccccc32)cc1 [Compound 221] | + (“+” equals >25 μM)
Cc1nc2ccc(Nc3nc(-c4ccncc4)nc4ccccc34)cc2o1 [Compound 34] | +++ (“+++” equals ≤1 μM)
OC(c1cccc(F)c1)c1nc(-c2ccncc2)nc2ccccc12 (centres unmarked) [Compound 6] | + (“+” equals >25 μM)
Fc1cccc2c(Nc3ccc4[nH]ccc4c3)nc(-c3ccncc3)nc12 [Compound 108] | +++ (“+++” equals ≤1 μM)

System: BEAS-2B cells
Assay: Toxicity: compound concentration needed to induce greater than 50 percent of cell loss
Format: cell-based, human
Conditions: 18 hours incubation
Outline: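 BEAS-2B cells stably expressing TFEB-EGFP treated with serial compound dilutions for 18 h, then PFA-fixed, DAPI-stained and imaged. Toxicity scored as the concentration causing >50% cell loss, binned as ≥25 μM, <25 and >1 μM, or ≤1 μM ("+++").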

Structure (SMILES) | toxicity (compound concentration needed to induce greater than 50 percent of cell loss)
Fc1cccc(Nc2nc(-c3ccncc3)nc3ccccc23)c1 [Compound 178] | + (cell loss of greater than 50 percent at a concentration that equals or is greater than 25 μM was represented as)
COc1cccc2c(Nc3ccc4[nH]ccc4c3)nc(-c3ccncc3)nc12 [Compound 115] | + (cell loss of greater than 50 percent at a concentration that equals or is greater than 25 μM was represented as)
c1ccc2c(Nc3ccc4[nH]ncc4c3)nc(-c3ccncc3)nc2c1 [Compound 160] | ++ (cell loss of greater than 50 percent at a concentration less than 25 μM and greater than 1 μM was represented as)
c1cnc2nc(-c3ccncc3)nc(Nc3ccc4c(c3)OCO4)c2c1 [Compound 133] | + (cell loss of greater than 50 percent at a concentration that equals or is greater than 25 μM was represented as)
c1ccc2c(Nc3ccc4ccncc4c3)nc(-c3ccncc3)nc2c1 [Compound 13] | + (cell loss of greater than 50 percent at a concentration that equals or is greater than 25 μM was represented as)
c1ccc2c(Nc3ccc4[nH]ccc4c3)nc(-c3ccncc3)nc2c1 [Compound 15] | + (cell loss of greater than 50 percent at a concentration that equals or is greater than 25 μM was represented as)
Fc1cc(Nc2nc(N3CCOCC3)nc3ncccc23)cc2cc[nH]c12 [Compound 384] | + (cell loss of greater than 50 percent at a concentration that equals or is greater than 25 μM was represented as)
Cc1ccc2nc(-c3ccncc3)nc(Nc3ccc4[nH]ccc4c3)c2c1 [Compound 116] | + (cell loss of greater than 50 percent at a concentration that equals or is greater than 25 μM was represented as)
c1cnc2nc(-c3ccncc3)nc(Nc3ccc4cnsc4c3)c2c1 [Compound 136] | + (cell loss of greater than 50 percent at a concentration that equals or is greater than 25 μM was represented as)
COc1ccc(NC(=O)Cn2c(=O)n(-c3ccc(CC(=O)NCCc4ccccc4)cc3)c(=O)c3ccccc32)cc1 [Compound 221] | + (cell loss of greater than 50 percent at a concentration that equals or is greater than 25 μM was represented as)
Cc1nc2ccc(Nc3nc(-c4ccncc4)nc4ccccc34)cc2o1 [Compound 34] | + (cell loss of greater than 50 percent at a concentration that equals or is greater than 25 μM was represented as)
OC(c1cccc(F)c1)c1nc(-c2ccncc2)nc2ccccc12 (centres unmarked) [Compound 6] | + (cell loss of greater than 50 percent at a concentration that equals or is greater than 25 μM was represented as)
Fc1cccc2c(Nc3ccc4[nH]ccc4c3)nc(-c3ccncc3)nc12 [Compound 108] | + (cell loss of greater than 50 percent at a concentration that equals or is greater than 25 μM was represented as)

System: TFEB
Assay: Immunoblotting for TFEB-GFP protein levels in MLE12 cells stably expressing TFEB-EGFP
Format: cell-based, murine
Conditions: dose dependent, 18 hours / 24 hours
Experimental: (§1) FIGS. 2A-C. BC1753 increases TFEB polypeptide levels. A. The structure of BC1753 is provided. B. MLE12 cells stably expressing TFEB-EGFP were treated with the indicated amounts of BC1753 for 24 hours before immunoblotting for TFEB-GFP and β-actin. C. MLE12 cells stably expressing TFEB-EGFP were treated with the indicated amounts of BC1753 for 24 hours before imaging by confocal microscopy (scale bar=10 μm).
(§2) BC1753 (FIG. 2A) was tested for its ability to increase TFEB polypeptide levels. Briefly, murine lung epithelial cells (MLE12) stably expressing TFEB-EGFP were treated with BC1753 in a dose dependent manner for 18 hours. Cells were then collected and assayed by immunoblotting for TFEB-GFP protein levels (FIG. 2B). Murine lung epithelial cells (MLE12) stably expressing TFEB-EGFP were treated with […] in a dose dependent manner for 18 hours. Cells were then fixed with 4% PFA followed by DAPI staining. TFEB localization was imaged on the GFP channel along with the DAPI signal using a Nikon A1 confocal microscope (FIG. 2C).

Structure (SMILES) | total TFEB polypeptide levels within cells (TFEB-GFP immunoblot)
COc1ccc(-n2c(=O)c3ccc(C(=O)NCCc4ccccc4)cc3n(CC(=O)Nc3ccc(C)cc3)c2=O)cc1 [BC1753] | increases; also recorded: drastically increased

System: TFEB
Assay: Confocal imaging of TFEB localization in MLE12 cells stably expressing TFEB-EGFP
Format: cell-based, murine
Conditions: dose dependent, 18 hours / 24 hours
Experimental: as §1, §2

Structure (SMILES) | nuclear TFEB polypeptide accumulation (confocal microscopy)
COc1ccc(-n2c(=O)c3ccc(C(=O)NCCc4ccccc4)cc3n(CC(=O)Nc3ccc(C)cc3)c2=O)cc1 [BC1753] | increased

System: Beas2B cells
Assay: Lysosome quantity in Beas2B cells (light microscope, lysotracker Red confocal microscopy)
Format: cell-based, human
Conditions: 18 hours, 1 μM or indicated concentrations
Experimental: FIGS. 4A-B. Compound 178 (BC1834) and Compound 160 (BC18200) increased lysosome quantity. A. Beas2B cells were treated with Cmpd. 178, Cmpd. 160, or the GSK3b inhibitor TWS119 (1 μM for 18 hours). Cells were then imaged through light microscope. B. Beas2B cells were treated with Cmpd. 178 for 18 hours at the indicated concentrations. Cells were then stained with lysotracker Red (100 nM) for 30 minutes. Cells then were washed and imaged through confocal microscopy.

Structure (SMILES) | lysosome quantity
Fc1cccc(Nc2nc(-c3ccncc3)nc3ccccc23)c1 [Compound 178] | increase
c1ccc2c(Nc3ccc4[nH]ncc4c3)nc(-c3ccncc3)nc2c1 [Compound 160] | increase

System: lysosomal protein gene expression
Assay: Lysosomal protein gene expression in Beas2B cells
Format: cell-based, human
Conditions: 10 μM for 24 hours
Experimental: (§3) FIGS. 5A-B. Compound 133 and Compound 115 increased lysosomal protein expression and secretion. A. Beas2B cells were treated with Cmpd. 133 at 10 μM for 24 hours. Cells then were collected and assayed for lysosomal protein gene expression. B. Beas2B cells were treated with Cmpd. 115 at the indicated concentration for 18 hours. Secreted b-hexosaminidase activity (a lysosomal enzyme) then was measured and normalized with cellular b-hexosaminidase activity.

Structure (SMILES) | lysosomal protein expression
Fc1cccc(Nc2nc(-c3ccncc3)nc3ccccc23)c1 [Compound 178] | increase
c1ccc2c(Nc3ccc4[nH]ncc4c3)nc(-c3ccncc3)nc2c1 [Compound 160] | increase
c1cnc2nc(-c3ccncc3)nc(Nc3ccc4c(c3)OCO4)c2c1 [Compound 133] | increased

System: b-hexosaminidase (a lysosomal enzyme)
Assay: Secreted b-hexosaminidase activity normalized with cellular b-hexosaminidase activity in Beas2B cells
Format: cell-based, human
Conditions: indicated concentration, 18 hours
Experimental: as §3

Structure (SMILES) | secretion of the lysosomal enzyme beta hexosaminidase
Fc1cccc(Nc2nc(-c3ccncc3)nc3ccccc23)c1 [Compound 178] | increase
COc1cccc2c(Nc3ccc4[nH]ccc4c3)nc(-c3ccncc3)nc12 [Compound 115] | increased
c1ccc2c(Nc3ccc4[nH]ncc4c3)nc(-c3ccncc3)nc2c1 [Compound 160] | increase

System: GFP-72Q (Huntingtin)
Assay: GFP-Huntingtin levels in SH5Y cells stably transfected with GFP-72Q (confocal imaging, immunoblot)
Format: cell-based
Conditions: SH5Y cells stably expressing GFP-Huntingtin (72Q), indicated amounts, 24 hours
Experimental: FIGS. 6A-B. Compound 178 reduced Huntingtin gene expression. A-B. SH5Y cells stably transfected with GFP-72Q (Huntingtin) were treated with the indicated amounts of Cmpd. 178 for 24 hours. Cells then were imaged with a confocal microscope or collected and assayed for protein expression using a GFP-Huntingtin immunoblot.
Compound 178 (BC1834) was tested for the ability to reduce Huntingtin polypeptide levels within cells. Briefly, Compound 178 was administered to SH5Y cells stably expressing GFP-Huntingtin (72Q).

Structure (SMILES) | GFP-Huntingtin polypeptide levels
Fc1cccc(Nc2nc(-c3ccncc3)nc3ccccc23)c1 [Compound 178] | dose dependently reduced

System: liver lysosomes
Assay: Liver lysosomal activity in mice (dextran blue confocal microscopy, Lamp2 immunostaining)
Format: in vivo
Conditions: female C57BL6 mice, i.p. for 4 days, 50 mg/kg/d or 30 mg/kg/day, liver 24 hours after i.v. dextran blue
Experimental: FIG. 7. Compound 15 increases liver lysosomal activity. Female C57BL6 mice were intraperitoneally (i.p.) injected with Cmpd. 15 (50 mg/kg/d) for 4 days. Mice were then intravenously (i.v.) injected with dextran blue. 24 hours later, mice were sacrificed, and livers were removed and imaged through confocal microscopy. White fluorescent signal indicates dextran blue within lysosome and provides a measure of lysosomal number and activity within the hepatic tissue (Upper panels). […] Scale bar: 50 microns.
Female C57BL6 mice were i.p. injected with Compound 15 (30 mg/kg/day) for 4 days. Mice were then i.v. injected with dextran blue. 24 hours later, mice were sacrificed, and liver samples were removed and imaged through confocal microscopy.

Structure (SMILES) | liver lysosomal dextran blue signal (lysosomal number and activity)
c1ccc2c(Nc3ccc4ccncc4c3)nc(-c3ccncc3)nc2c1 [Compound 13] | drastically increased
c1ccc2c(Nc3ccc4[nH]ccc4c3)nc(-c3ccncc3)nc2c1 [Compound 15] | increases

Same assay, conditions: female C57BL6 mice, i.p. for 4 days, 50 mg/kg/d or 30 mg/kg/day, liver slides

Structure (SMILES) | liver Lamp2 staining
c1ccc2c(Nc3ccc4ccncc4c3)nc(-c3ccncc3)nc2c1 [Compound 13] | drastically increased
c1ccc2c(Nc3ccc4[nH]ccc4c3)nc(-c3ccncc3)nc2c1 [Compound 15] | enhanced signals
